This series relates to CCRIS mutagenicity, Ames/micronucleus/aberration tests. Description: CCRIS mutagenicity studies.
Where [1] appears, read: Test System: AMES SALMONELLA TYPHIMURIUM, Strain/Indicator: TA98, Metabolic Activation: NONE, Method: STANDARD PLATE.
The mark [2] stands for this setting: Test System: AMES SALMONELLA TYPHIMURIUM, Strain/Indicator: TA100, Metabolic Activation: NONE, Method: PREINCUBATION
Setting [3] is: Test System: AMES SALMONELLA TYPHIMURIUM, Strain/Indicator: TA100, Metabolic Activation: RAT, LIVER, S-9, AROCLOR 1254, Method: STANDARD PLATE.
[4] abbreviates: Test System: AMES SALMONELLA TYPHIMURIUM, Strain/Indicator: TA1535, Metabolic Activation: NONE, Method: STANDARD PLATE.
The mark [5] stands for this setting: Test System: AMES SALMONELLA TYPHIMURIUM, Strain/Indicator: TA1537, Metabolic Activation: NONE, Method: STANDARD PLATE.

Each structure is given as a SMILES string. The source made the active and inactive calls. How the calls were made is not given here.

For the compound `[O]=[Cr](=[O])([OH])[O][Cr](=[O])(=[O])[OH]`, the mutagenic call was “active; positive” (Test System: AMES SALMONELLA TYPHIMURIUM, Strain/Indicator: TA92, Metabolic Activation: NONE, Method: STANDARD PLATE); “active; positive” (Test System: AMES SALMONELLA TYPHIMURIUM, Strain/Indicator: TA97, Metabolic Activation: HAMSTER, LIVER, S-9, AROCLOR 1254 (30%), Method: PREINCUBATION); “active; positive” (Test System: AMES SALMONELLA TYPHIMURIUM, Strain/Indicator: TA97, Metabolic Activation: NONE, Method: PREINCUBATION); “active; positive” (Test System: AMES SALMONELLA TYPHIMURIUM, Strain/Indicator: TA97, Metabolic Activation: RAT, LIVER, S-9, AROCLOR 1254 (30%), Method: PREINCUBATION); “active; positive” (Test System: AMES SALMONELLA TYPHIMURIUM, Strain/Indicator: TA97A, Metabolic Activation: NONE, Method: MICROSUSPENSION-PREINCUBATION); “active; positive” (Test System: AMES SALMONELLA TYPHIMURIUM, Strain/Indicator: TA97A, Metabolic Activation: RAT, LIVER, S-9, AROCLOR 1254, Method: MICROSUSPENSION-PREINCUBATION). Moreover, the mutagenic call is “active; positive” (Test System: AMES SALMONELLA TYPHIMURIUM, Strain/Indicator: TA98, Metabolic Activation: HAMSTER, LIVER, S-9, AROCLOR 1254 (30%), Method: PREINCUBATION); “active; positive” (Test System: AMES SALMONELLA TYPHIMURIUM, Strain/Indicator: TA98, Metabolic Activation: NONE, Method: MICROSUSPENSION-PREINCUBATION); “active; positive” (Test System: AMES SALMONELLA TYPHIMURIUM, Strain/Indicator: TA98, Metabolic Activation: NONE, Method: PREINCUBATION); “active; positive” under setting [1]; “active; positive” (Test System: AMES SALMONELLA TYPHIMURIUM, Strain/Indicator: TA98, Metabolic Activation: RAT, LIVER, S-9, AROCLOR 1254 (30%), Method: PREINCUBATION); “active; positive” (Test System: AMES SALMONELLA TYPHIMURIUM, Strain/Indicator: TA98, Metabolic Activation: RAT, LIVER, S-9, AROCLOR 1254, Method: MICROSUSPENSION-PREINCUBATION). Moreover, the mutagenic call runs as follows: (Test System: AMES SALMONELLA TYPHIMURIUM, Strain/Indicator: TA98, Metabolic Activation: RAT, LIVER, S-9, Method: STANDARD PLATE) “active; positive”; (Test System: AMES SALMONELLA TYPHIMURIUM, Strain/Indicator: TA100, Metabolic Activation: HAMSTER, LIVER, S-9, AROCLOR 1254 (30%), Method: PREINCUBATION) “active; positive”; (Test System: AMES SALMONELLA TYPHIMURIUM, Strain/Indicator: TA100, Metabolic Activation: NONE, Method: MICROSUSPENSION-PREINCUBATION) “active; positive”; under setting [2], “active; positive”; (Test System: AMES SALMONELLA TYPHIMURIUM, Strain/Indicator: TA100, Metabolic Activation: RAT, LIVER, S-9, AROCLOR 1254 (30%), Method: PREINCUBATION) “active; positive”; (Test System: AMES SALMONELLA TYPHIMURIUM, Strain/Indicator: TA100, Metabolic Activation: RAT, LIVER, S-9, AROCLOR 1254, Method: MICROSUSPENSION-PREINCUBATION) “active; positive”. In addition, the mutagenic call by setting is: under setting [3], “active; positive”; (Test System: AMES SALMONELLA TYPHIMURIUM, Strain/Indicator: TA100, Metabolic Activation: RAT, LIVER, S-9, Method: STANDARD PLATE) “active; positive”; (Test System: AMES SALMONELLA TYPHIMURIUM, Strain/Indicator: TA102, Metabolic Activation: NONE, Method: FLUCTUATION TEST) “active; positive”; (Test System: AMES SALMONELLA TYPHIMURIUM, Strain/Indicator: TA102, Metabolic Activation: NONE, Method: MICROSUSPENSION-PREINCUBATION) “active; positive”; (Test System: AMES SALMONELLA TYPHIMURIUM, Strain/Indicator: TA102, Metabolic Activation: NONE, Method: STANDARD PLATE) “active; positive”; (Test System: AMES SALMONELLA TYPHIMURIUM, Strain/Indicator: TA102, Metabolic Activation: RAT, LIVER, S-9, AROCLOR 1254, Method: MICROSUSPENSION-PREINCUBATION) “active; positive”. Moreover, the mutagenic call runs as follows: (Test System: AMES SALMONELLA TYPHIMURIUM, Strain/Indicator: TA103, Metabolic Activation: NONE, Method: STANDARD PLATE) “active; positive”; (Test System: AMES SALMONELLA TYPHIMURIUM, Strain/Indicator: TA104, Metabolic Activation: NONE, Method: STANDARD PLATE) “active; positive”; under setting [4], “inactive; negative”; (Test System: AMES SALMONELLA TYPHIMURIUM, Strain/Indicator: TA1535, Metabolic Activation: RAT, LIVER, S-9, Method: STANDARD PLATE) “inactive; negative”; under setting [5], “inactive; negative”; (Test System: AMES SALMONELLA TYPHIMURIUM, Strain/Indicator: TA1537, Metabolic Activation: RAT, LIVER, S-9, Method: STANDARD PLATE) “inactive; negative”. In addition, the mutagenic call reads like this: (Test System: AMES SALMONELLA TYPHIMURIUM, Strain/Indicator: TA1538, Metabolic Activation: NONE, Method: STANDARD PLATE) “inactive; negative”; (Test System: AMES SALMONELLA TYPHIMURIUM, Strain/Indicator: TA1538, Metabolic Activation: RAT, LIVER, S-9, Method: STANDARD PLATE) “inactive; negative”; (Test System: AMES SALMONELLA TYPHIMURIUM, Strain/Indicator: TA2638, Metabolic Activation: NONE, Method: PREINCUBATION) “active; positive”; (Test System: AMES SALMONELLA TYPHIMURIUM, Strain/Indicator: TA2638, Metabolic Activation: NONE, Method: STANDARD PLATE) “active; positive”; (Test System: AMES SALMONELLA TYPHIMURIUM, Strain/Indicator: TA2638A, Metabolic Activation: NONE, Method: STANDARD PLATE) “active; positive”; (Test System: E. COLI, Strain/Indicator: WP2 (PKM101), Metabolic Activation: NONE, Method: STANDARD PLATE) “active; positive”. The mutagenic call runs as follows: (Test System: E. COLI, Strain/Indicator: WP2 UVRA (PKM101), Metabolic Activation: NONE, Method: STANDARD PLATE) “active; positive”; (Test System: E. COLI, Strain/Indicator: WP2 UVRA, Metabolic Activation: NONE, Method: SPOT TEST) “active; positive”; (Test System: E. COLI, Strain/Indicator: WP2 UVRA, Metabolic Activation: NONE, Method: STANDARD PLATE) “active; positive”; (Test System: UDS HUMAN AMNION FL CELL LINE, Strain/Indicator: THY INCORP, Metabolic Activation: NONE, Method: LIQUID SCINTILLATION COUNTING) “active; positive”.

As for `CC1(C)Cc2cccc(O)c2O1`, the mutagenic call (End Point: IN VIVO MICRONUCLEUS, Test System: BONE MARROW POLYCHROMATIC ERYTHROCYTES, Species: MOUSE, Strain/Sex: KM/MALE, FEMALE, Route: IP INJECTION) was “inactive; negative”.

Turning to `O=C(n1ccnc1)n1ccnc1`, the mutagenic call is, setting by setting: under setting [1], “inactive; negative”; (Test System: AMES SALMONELLA TYPHIMURIUM, Strain/Indicator: TA98, Metabolic Activation: RAT, LIVER, S-9, AROCLOR 1254, Method: STANDARD PLATE) “inactive; negative”; (Test System: AMES SALMONELLA TYPHIMURIUM, Strain/Indicator: TA100, Metabolic Activation: NONE, Method: STANDARD PLATE) “inactive; negative”; under setting [3], “inactive; negative”; under setting [4], “inactive; negative”; (Test System: AMES SALMONELLA TYPHIMURIUM, Strain/Indicator: TA1535, Metabolic Activation: RAT, LIVER, S-9, AROCLOR 1254, Method: STANDARD PLATE) “inactive; negative”. For the same compound, the mutagenic call reads like this: under setting [5], “inactive; negative”; (Test System: AMES SALMONELLA TYPHIMURIUM, Strain/Indicator: TA1537, Metabolic Activation: RAT, LIVER, S-9, AROCLOR 1254, Method: STANDARD PLATE) “inactive; negative”.

Take `Cc1ccc(NO)cc1`: the mutagenic call is, setting by setting: (Test System: AMES SALMONELLA TYPHIMURIUM, Strain/Indicator: TA98, Metabolic Activation: RAT, LIVER, S-9, AROCLOR 1254, Method: PREINCUBATION) “inactive; negative”; under setting [2], “active; positive”; (Test System: AMES SALMONELLA TYPHIMURIUM, Strain/Indicator: TA100, Metabolic Activation: RAT, LIVER, S-9, PCB, Method: PREINCUBATION) “active; positive”; (Test System: E. COLI, Strain/Indicator: WP2 UVRA, Metabolic Activation: NONE, Method: FLUCTUATION TEST) “active; positive”.

The record behind these values is PubChem BioAssay AID1259407 (Chemical Carcinogenesis Research Information System (CCRIS), 2018).
